In patent publication US20250072433A1, “ORGANIC CONCENTRATED VITAMINE-PHYTOHORMONE WITH NATURAL BIO-STIMULANT PROPERTIES AS FERTILIZER CONCENTRATED EXTRACT OF DUCKWEED ARACEA FAMILY OF PLANTS FORMALY KNOWN AS LEMNACEAE SINGLE OR COMBINED SPECIES THAT CAN INCLUDE ALSO COMPOUNDED MULTIPLE FORMULATED AQUATIC PLANTS EXTRACTS TO NATURALY …” (priority 2021, published 2025):
“Also recorded” adds a separate entry of the source.

Test system: mung bean hypocotyl cuttings
Experiment: Comparative mung bean bioassay: rooting response of stem cuttings versus seaweed products and IAA/IBA standards (Example 6)
Assay type: in vivo
Conditions: for pH: 30 mg/L; for stem growth, length: 1% dilution; for concentration with the higher number of roots developed: range 0 to 30 mg/L
Excerpt: A composition comparative study further embodiment described in detail in Example 6. to determine the concertation of Auxins in relation to Standard indole-3-Butiric acid (IBA) and indole-3-acetic (IAA) embodied in the examples Duckweed Biotech product is a combination of three aquatic plants of the Aracea family, which is compared with commercial seaweed products: Product (1) “K” and Product (2) “M”. The dilutions were made from the liquid concentrated products and the Duckweed Biotech from a natural concentrate extraction of three duckweed species. The equivalent phytohormone activity of IAA and IBA was established by the number of roots to the corresponding treatment dilution and interpolating the number of roots to the corresponding hormone concentration to obtain the total activity in mg/L of the commercial product.
Two commercial giant brown kelp seaweed products, Product (1) “K” made of Ecklonia maxima and Product (2) “M” made of Ascophyllum nodosum were compared with the Duckweed Biotech Product “D” made of a combination of Duckweed aquatic plants of the Araceae family of plants formally known as Lemnaceae family of plants. For the test, a series of dilutions from 0% to 50% were made from the concentrated commercial products.
The preparation of standards was performed using a concentration range of 0, 1, 2, 5, 10, 15, 20 and 30 mg/L of indole-3-butyric acid (IBA) and indole-3-acetic acid (IAA) as shown in Table 20. A dose growth response curve for rooting ability was produced using these auxins.
The mung bean bioassay was used to evaluate plant growth and rooting stimulation response of three products: Duckweed Biotech Product “D”, Product (1) “K” and Product (2) “M”.
The seeds of mung bean seeds were rinse thoroughly with water and soak for […]. in DI water. 2. The seeds were planted in microgreen trays for germination process at 26° C. After 8 days, uniform hypocotyl cuttings with 8 cm length with 2 primary leaves and without cotyledon were transferred to the treatment vials. The cuttings are rinsed with DI water and then soak in 20 mL treatment test solutions for 8 hr. The treatment solutions include Duckweed Biotech Product “D”, Product (1) “K”, Product (2) “M”, indole-3-acetic acid (IAA), and indole-3-butyric acid (IBA). The treatments are follows: • IBA & IAA concentrations: 0, 1, 2, 5, 10, 15, 20 and 30 mg/L • Duckweed Biotech Product “D” Conc.: 0, 0.5, 1, 2, 5, 10, 20 and 50% • Product (1) “K” Conc.: 0, 0.5, 1, 2, 5, 10, 20 and 50% • Product (2) “M” Conc.: 0, 0.5, 1, 2, 5, 10, 20 and 50%
3 After the treatments, the seedling base cuttings were rinsed with DI water and transferred to clean vials with glass beads containing 60 mL of DI water for 8 days. Two cuttings were placed in each vial and two vials were used for each treatment. The vials are left at 28±3° C. ambient air temperature and under lighting at 135 μmol photons m^−2 s^−1 in a 16-h day/8-h night cycle. The humidity is maintained over 60%.
4. After 8 days, the number of roots per hypocotyl was recorded. The plant quality and stem length were also evaluated. The data collected was organized and analyzed using Microsoft Excel
The plant growth and rooting response of each treatment were recorded after 8 days. The rooting response was evaluated based on number of roots developed per cutting. The average number of roots of three cuttings per treatment was used to determine the effectiveness of the treatments. Plant quality and stem length were also recorded. […] The plants with higher rooting response were found at 2% with duckweed treatment with 67 roots. Whereas Product (1) “K” at 20% dilution stimulated root production with 46 roots and Product (2) “M” at 2% dilution with 32 roots. A decline of rooting stimulation was found at 50% dilution for all evaluated products (FIG. 35 & FIG. 36) that coincides with previous research literature for brown kelp extract products. […]

For `O=C(O)Cc1c[nH]c2ccccc12` [IAA, indole-3-acetic acid], the pH was 6.92, the “stem growth, length” value was 15 cm and the “concentration with the higher number of roots developed” value was 30 mg/L.

For `O=C(O)CCCc1c[nH]c2ccccc12` [IBA, indole-3-butyric acid], the pH was 6.53, the “stem growth, length” value was 15 cm and the “root formation, IBA compared with IAA” value (in vivo) was “stimulated more roots in all concentrated treatments than IAA; also recorded: more effective than indol-3-acetic acid (IAA) in root development”. For the same molecule, the “concentration with the higher number of roots developed” value was 30 mg/L.
